Test system: cells
Experiment: label-free cell assay by optical interference phase microscope
Format: cell-based
Settings: for change in measurement values (phase) depending on concentration, by time: dosed in different concentration, measured by time (FIG. 5)
Description: FIG. 4 is a view showing an example of an image of cells photographed by an optical interference phase microscope beneath the transparent medium of the high-throughput label-free cell assay system.
FIG. 5 is a view showing an example of a measurement value by time in the high-throughput label-free cell assay system in a case that picolinic acid and histamine are separately given to cells in different concentration.

| Compound | change in measurement values (phase) depending on concentration, by time | number of observed cells in optical interference phase image (half an hour after dosing, untreated cells showed no change after 30 minutes) |
| --- | --- | --- |
| NCCc1c[nH]cn1 [histamine] | remarkable changes in measurement values depending on concentration were observed |  |
| O=C(O)c1ccccn1 [picolinic acid] | remarkable changes in measurement values depending on concentration were observed | remarkably reduced |
